Tests used:
Type in all cases: functional
NCI-H460 [1] = assay: Growth inhibition of human NCI-H460 cells assessed as cell growth at 10^-8 M by sulforhodamine B assay; settings: read-out: Activity
SN12C = assay: Growth inhibition of human SN12C cells by sulforhodamine B assay
NCI-H322M [2] = assay: Growth inhibition of human NCI-H322M cells assessed as cell growth at 10^-4 M by sulforhodamine B assay; settings: read-out: Activity
MCF7 [3] = assay: Growth inhibition of human MCF7 cells assessed as cell growth at 10^-6 M by sulforhodamine B assay; settings: read-out: Activity
RXF 393 [4] = assay: Growth inhibition of human RXF393 cells assessed as cell growth at 10^-8 M by sulforhodamine B assay; settings: read-out: Activity
UO-31 = assay: Growth inhibition of human UO31 cells assessed as cell growth at 10^-4 M by sulforhodamine B assay; settings: read-out: Activity
[5] = Growth inhibition of human HCC2998 cells assessed as cell growth at 10^-4 M by sulforhodamine B assay; settings: HCC 2998, read-out: Activity
SK-MEL-5 = assay: Growth inhibition of human SK-MEL-5 cells assessed as cell growth at 10^-7 M by sulforhodamine B assay; settings: read-out: Activity
IGROV-1 = assay: Growth inhibition of human IGROV1 cells assessed as cell growth at 10^-7 M by sulforhodamine B assay; settings: read-out: Activity
SNB-19 = assay: Growth inhibition of human SNB19 cells assessed as cell growth at 10^-8 M by sulforhodamine B assay; settings: read-out: Activity
SK-OV-3 [6] = assay: Growth inhibition of human SKOV3 cells assessed as cell growth at 10^-8 M by sulforhodamine B assay; settings: read-out: Activity
SF-268 = assay: Growth inhibition of human SF268 cells assessed as cell growth at 10^-6 M by sulforhodamine B assay; settings: read-out: Activity
HCT-116 = assay: Growth inhibition of human HCT116 cells assessed as cell growth at 10^-7 M by sulforhodamine B assay; settings: read-out: Activity
SF-295 = assay: Growth inhibition of human SF295 cells assessed as cell growth at 10^-7 M by sulforhodamine B assay; settings: read-out: Activity
HL-60(TB) = assay: Growth inhibition of human HL-60(TB) cells assessed as cell growth at 10^-8 M by sulforhodamine B assay; settings: read-out: Activity
RPMI-8226 = assay: Growth inhibition of human RPMI8226 cells by sulforhodamine B assay
M14 = assay: Growth inhibition of human M14 cells assessed as cell growth at 10^-7 M by sulforhodamine B assay; settings: read-out: Activity
UACC-257 = assay: Growth inhibition of human UACC257 cells assessed as cell growth at 10^-6 M by sulforhodamine B assay; settings: read-out: Activity
OVCAR-4 [7] = assay: Growth inhibition of human OVCAR4 cells by sulforhodamine B assay
T47D [8] = assay: Growth inhibition of human T47D cells assessed as cell growth at 10^-7 M by sulforhodamine B assay; settings: read-out: Activity
DU-145 = assay: Growth inhibition of human DU145 cells assessed as cell growth at 10^-8 M by sulforhodamine B assay; settings: read-out: Activity
PC-3 = assay: Growth inhibition of human PC3 cells assessed as cell growth at 10^-8 M by sulforhodamine B assay; settings: read-out: Activity
HOP-62 = assay: Growth inhibition of human HOP62 cells by sulforhodamine B assay
MCF7 [9] = assay: Growth inhibition of human MCF7 cells assessed as cell growth at 10^-8 M by sulforhodamine B assay; settings: read-out: Activity
MOLT-4 [10] = assay: Growth inhibition of human MOLT4 cells assessed as cell growth at 10^-4 M by sulforhodamine B assay; settings: read-out: Activity
CCRF-CEM = assay: Growth inhibition of human CCRF-CEM cells assessed as cell growth at 10^-4 M by sulforhodamine B assay; settings: read-out: Activity
HT-29 = assay: Growth inhibition of human HT-29 cells assessed as cell growth at 10^-8 M by sulforhodamine B assay; settings: read-out: Activity
SK-OV-3 [11] = assay: Growth inhibition of human SKOV3 cells assessed as cell growth at 10^-6 M by sulforhodamine B assay; settings: read-out: Activity
HCT-15 = assay: Growth inhibition of human HCT15 cells assessed as cell growth at 10^-4 M by sulforhodamine B assay; settings: read-out: Activity
MOLT-4 [12] = assay: Growth inhibition of human MOLT4 cells by sulforhodamine B assay
[13] = Growth inhibition of human HCC2998 cells by sulforhodamine B assay
SW-620 = assay: Growth inhibition of human SW620 cells assessed as cell growth at 10^-4 M by sulforhodamine B assay; settings: read-out: Activity
T47D [14] = assay: Growth inhibition of human T47D cells assessed as cell growth at 10^-8 M by sulforhodamine B assay; settings: read-out: Activity
HOP-92 = assay: Growth inhibition of human HOP92 cells assessed as cell growth at 10^-4 M by sulforhodamine B assay; settings: read-out: Activity
U-251 = assay: Growth inhibition of human U251 cells assessed as cell growth at 10^-6 M by sulforhodamine B assay; settings: read-out: Activity
A498 = assay: Growth inhibition of human A498 cells assessed as cell growth at 10^-6 M by sulforhodamine B assay; settings: read-out: Activity
TK-10 = assay: Growth inhibition of human TK10 cells assessed as cell growth at 10^-4 M by sulforhodamine B assay; settings: read-out: Activity
K562 = assay: Growth inhibition of human K562 cells assessed as cell growth at 10^-7 M by sulforhodamine B assay; settings: read-out: Activity
NCI-H460 [15] = assay: Growth inhibition of human NCI-H460 cells assessed as cell growth at 10^-6 M by sulforhodamine B assay; settings: read-out: Activity
NCI-H322M [16] = assay: Growth inhibition of human NCI-H322M cells assessed as cell growth at 10^-6 M by sulforhodamine B assay; settings: read-out: Activity
RXF 393 [17] = assay: Growth inhibition of human RXF393 cells assessed as cell growth at 10^-4 M by sulforhodamine B assay; settings: read-out: Activity
OVCAR-4 [18] = assay: Growth inhibition of human OVCAR4 cells assessed as cell growth at 10^-6 M by sulforhodamine B assay; settings: read-out: Activity
[19] = read-out: LC50 (the source's name)
[20] = read-out: pLC50 (the source's name) (converted)

## C/C=C(/C)C(=O)O[C@@H]1CC(C)(C)C[C@H]2C3=CC[C@@H]4[C@@]5(C)CC[C@H](O)C(C)(C)[C@@H]5CC[C@@]4(C)[C@]3(C)CC[C@@]12C(=O)O [Reduced Lantadene A]
NCI-H460 [1]
  growth at 0.01 µM: 101%
SN12C; read-out: GI50
  GI50: 1.63 µM
SN12C; [19]
  CC50: 7.22 µM
SN12C; read-out: TGI
  TGI: 3.43 µM
SN12C; read-out: pGI50 (converted)
  GI50: 1.62 µM
SN12C; [20]
  CC50: 7.24 µM
SN12C; read-out: pTGI (converted)
  TGI: 3.47 µM
NCI-H322M [2]
  growth at 100 µM: -71%
MCF7 [3]
  growth at 1 µM: 88%
RXF 393 [4]
  growth at 0.01 µM: 93%
UO-31
  growth at 100 µM: -66%
[5]
  growth at 100 µM: -58%
SK-MEL-5
  growth at 0.1 µM: 92%
IGROV-1
  growth at 0.1 µM: 111%
SNB-19
  growth at 0.01 µM: 90%
SK-OV-3 [6]
  growth at 0.01 µM: 100%
SF-268
  growth at 1 µM: 104%
HCT-116
  growth at 0.1 µM: 95%
SF-295
  growth at 0.1 µM: 90%
HL-60(TB)
  growth at 0.01 µM: 106%
RPMI-8226; read-out: GI50
  GI50: 1.85 µM
RPMI-8226; [19]
  CC50: > 100 µM
RPMI-8226; read-out: TGI
  TGI: 8.71 µM
RPMI-8226; read-out: pGI50 (converted)
  GI50: 1.86 µM
RPMI-8226; [20]
  CC50: > 100 µM
RPMI-8226; read-out: pTGI (converted)
  TGI: 8.71 µM
M14
  growth at 0.1 µM: 92%
UACC-257
  growth at 1 µM: 95%
OVCAR-4 [7]; read-out: GI50
  GI50: 1.77 µM
OVCAR-4 [7]; read-out: TGI
  TGI: 3.74 µM
OVCAR-4 [7]; read-out: pGI50 (converted)
  GI50: 1.78 µM
OVCAR-4 [7]; read-out: pTGI (converted)
  TGI: 3.72 µM
T47D [8]
  growth at 0.1 µM: 104%
DU-145
  growth at 0.01 µM: 113%
PC-3
  growth at 0.01 µM: 92%
HOP-62; read-out: GI50
  GI50: 1.87 µM
HOP-62; read-out: TGI
  TGI: 3.55 µM
HOP-62; read-out: pGI50 (converted)
  GI50: 1.86 µM
HOP-62; read-out: pTGI (converted)
  TGI: 3.55 µM
MCF7 [9]
  growth at 0.01 µM: 95%
MOLT-4 [10]
  growth at 100 µM: -36%
CCRF-CEM
  growth at 100 µM: -2%
HT-29
  growth at 0.01 µM: 104%
SK-OV-3 [11]
  growth at 1 µM: 98%
HCT-15
  growth at 100 µM: -64%
MOLT-4 [12]; read-out: GI50
  GI50: 2.05 µM
MOLT-4 [12]; [19]
  CC50: > 100 µM
MOLT-4 [12]; read-out: TGI
  TGI: 5.14 µM
MOLT-4 [12]; read-out: pGI50 (converted)
  GI50: 2.04 µM
MOLT-4 [12]; [20]
  CC50: > 100 µM
MOLT-4 [12]; read-out: pTGI (converted)
  TGI: 5.13 µM
[13]; HCC 2998, read-out: GI50
  GI50: 1.88 µM
[13]; HCC 2998, read-out: LC50 (the source's name)
  CC50: 6.43 µM
[13]; HCC 2998, read-out: TGI
  TGI: 3.47 µM
[13]; HCC 2998, read-out: pGI50 (converted)
  GI50: 1.86 µM
[13]; HCC 2998, read-out: pLC50 (the source's name) (converted)
  CC50: 6.46 µM
[13]; HCC 2998, read-out: pTGI (converted)
  TGI: 3.47 µM
SW-620
  growth at 100 µM: -32%
T47D [14]
  growth at 0.01 µM: 101%
HOP-92
  growth at 100 µM: -73%
U-251
  growth at 1 µM: 83%
A498
  growth at 1 µM: 78%
TK-10
  growth at 100 µM: -69%
K562
  growth at 0.1 µM: 105%
NCI-H460 [15]
  growth at 1 µM: 89%
NCI-H322M [16]
  growth at 1 µM: 93%
RXF 393 [17]
  growth at 100 µM: -76%
OVCAR-4 [18]
  growth at 1 µM: 88%
